Among the data in patent US20250034135A1, “ANTI-APOPTOTIC PROTEIN BCL-2 INHIBITOR, PHARMACEUTICAL COMPOSITION AND USES THEREOF” (HANGZHOU HEALZEN THERAPEUTICS CO., LTD., priority 2021, published 2025) are IC50 values, retold here.

SMILES strings stand for the structures. Where only a bound is given, the exact number is not on record here.

The target in one assay is BCL2 (G101V) (Homo sapiens (Human), UniProt P10415, G101V). Kind of assay: Molecular level activity test of anti-apoptotic protein BCL2 (G101V) (HTRF, binding to Bim peptide). As to conditions: inhibition of BCL2 (G101V) binding to Bim peptide, read-out: BCL-2 (G101V). As to the method:
(§1) The detection of the binding ability between anti-apoptotic protein BCL2 (G101V) and pro-apoptotic protein Bim was performed using Homogeneous Time-Resolved Fluorescence technology. The reaction of this method occurred in a white shallow 384-well plate, with a total reaction volume of 10 μL. Specifically, it included 2 μL of the compound to be tested (2% DMSO), 4 μL His-tagged recombinant protein, and 4 μL Biotin-tagged BIM protein peptide. After 1 hour of reaction, 5 L of each Anti-His and streptavidin-tagged XL665 antibody diluents diluted with a detection buffer were added. After incubating at room temperature for 4 hours, the values were read using the Envision multifunctional microplate reader to detect the effect of the compound to be tested on the binding ability of BCL2 (G101V) to BIM protein peptides.
Background: Time-resolved FRET reads energy transfer from a long-lived donor to a nearby acceptor.

Another assay concerns the target BCL2 (D103Y) (Homo sapiens (Human), UniProt P10415, D103Y). Kind of assay: Molecular level activity test of BCL2 (D103Y) (HTRF, binding to Bim peptide). The settings on record: read-out: BCL-2 (D103Y) (nM) (inhibitory activity, IC50). As to the method: as §1, with “BCL2 (D103Y)” for “BCL2 (G101V)”, “5 μL” for “5 L”
The subject of the next assay is RS4; 11 cells. Kind of assay: Tumor proliferation inhibitory activity test (MTS) on RS4; 11. Format: cell-based. The settings on record: Homo sapiens, RS4-11, 72 h, 3 days incubation. Here is the method: The cell proliferation inhibitory ability of the compounds on RS4; 11 was tested using the MTS method. MTS is a tetrazolium blue salt compound that can be reduced by various dehydrogenases in live cell mitochondria to their respective colored methylzan products. Its color depth is highly correlated with the number of live cells in certain sensitive cell lines within a certain range. RS4; 11, RS4; 11 (BCL-2-G101V) and MOLT-4 tumor cells were cultivated separately and collected, 180 μL of cell suspension was added to each well in a 96-well cell plate, 20 μL of DMSO with a final concentration of 0.2% was added to the control cell wells, 20 μL of gradient diluted compounds were added to cell wells, and the treated cells were incubated in a 5% CO2 incubator at 37° C. for 3 days. After the incubation was completed, the reaction solution was prepared according to the MTS reagent kit, 20 μL was added per well and incubated in a 5% CO2 incubator at 37° C. for 3-4 hours. The absorbance value at 490 nm was read using an enzyme-linked immunosorbent assay (ELISA) plate, and the absorbance value at 690 nm was used as the background value, with OD490 nm-OD690 nm as the final raw data. The formula for calculating the inhibition ratio of compounds was as follows: inhibition ratio=(ODDMSO−ODCompound)/(ODDMSO−ODblank)×100%.

For the next assay, the target named is BCL-XL (Homo sapiens (Human), UniProt Q07817). Kind of assay: BCL-XL enzyme molecular level activity test (HTRF, binding to BIM peptide). As to conditions: binding of BCL-XL to BIM peptide, values in nM, read-out: BCL-XL inhibitory activity (IC50). As to the method: In a white shallow 384-well plate, a total reaction volume was 10 μL. Specifically, it included 2 μL of the compound to be tested (2% DMSO), […] His-tagged recombinant protein, and 4 μL Biotin-tagged BIM protein peptide. After 1 hour of reaction, 5 μL of each Anti-His and streptavidin-tagged XL665 antibody diluents diluted with a detection buffer were added. After incubating at room temperature for 4 hours, the values were read using the Envision multifunctional microplate reader to detect the effect of the compound to be tested on the binding ability of BCL-XL to BIM protein peptides. The Envision parameter settings were exciting light at 320 nm, and emitting light at 615 nm and 665 nm. The binding ability of anti-apoptotic proteins to Bim protein peptides was indirectly reflected by the signal ratio of 665 nm and 615 nm. In the reaction, background wells without BCL2 and active wells for full binding of recombinant proteins without compounds and Bim protein peptides were set up.
BCL-XL, sequence (Q07817 whole entry): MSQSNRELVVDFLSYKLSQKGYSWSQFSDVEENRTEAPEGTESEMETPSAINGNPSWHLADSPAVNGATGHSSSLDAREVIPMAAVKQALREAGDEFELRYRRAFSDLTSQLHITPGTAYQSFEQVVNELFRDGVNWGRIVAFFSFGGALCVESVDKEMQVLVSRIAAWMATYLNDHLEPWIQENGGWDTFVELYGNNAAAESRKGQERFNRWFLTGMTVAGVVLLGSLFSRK

Another assay concerns the target BCL2 (Homo sapiens (Human), UniProt P10415). Kind of assay: Molecular level activity test of anti-apoptotic protein BCL2 (HTRF, binding to Bim peptide). As to conditions: HTRF, binding of BCL2 to Bim peptide; read-out: BCL2 nM (inhibitory activity, IC50). An outline of the steps: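 HTRF binding of His-tagged recombinant BCL2 to biotin-tagged Bim peptide, compound in 2% DMSO. After 1 h reaction, anti-His and streptavidin-XL665 detection reagents were added and incubated 4 h at room temperature before reading.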

With `COc1ccc(CN2CCN(C3CC4(CCN(c5cc(Oc6cnc7[nH]cc(F)c7c6)c(C(=O)NS(=O)(=O)c6ccc(NCC7(F)CCOCC7)c([N+](=O)[O-])c6)cc5F)CC4)C3)[C@H](c3ccccc3C(C)C)C2)cn1` [compound 254, (R)-5-fluoro-2-((3-fluoro-1H-pyrrolo[2,3-b]pyrid-5-yl)oxy)-N-((4-(((4-fluorotetrahydro-2H-pyran-4-yl)methyl)amino)-3-nitrophenyl)sulfonyl)-4-(2-(2-(2-isopropylphenyl)-4-((6-methoxypyrid-3-yl)methyl)piperazin-1-yl)-7-azaspiro[3.5]non-7-yl)benzamide], the IC50 at BCL2 (G101V) was under 10 nM; on BCL2 (D103Y), under 10 nM; with RS4; 11 cells, 0.5 to 1 nM; on BCL-XL, over 500 nM; at BCL2 it was under 10 nM.
On to `CC(C)c1ccccc1[C@@H]1CN(Cc2cnn(C)c2)CCN1C1CC2(CCN(c3cc(Oc4cnc5[nH]ccc5c4)c(C(=O)NS(=O)(=O)c4ccc(NC[C@H]5CC[C@](C)(O)CC5)c([N+](=O)[O-])c4)cc3F)CC2)C1` [compound 238, 2-((1H-pyrrolo[2,3-b]pyrid-5-yl)oxy)-5-fluoro-N-((4-((((1r, 4r)-4-hydroxy-4-methylcyclohexyl)methyl)amino)-3-nitrophenyl)sulfonyl)-4-(2-((R)-2-(2-isopropylphenyl)-4-((1-methyl-1H-pyrazole-4-yl)methyl)piperazin-1-yl)-7-azaspiro[3.5]non-7-yl)benzamide], for which the IC50 in the assay with RS4; 11 cells was in the range of 0.5 to 1 nM.
As for `CC(C)c1ccccc1[C@@H]1CN(Cc2ccc(CN(C)C)cc2)CCN1C1CC2(CCN(c3cc(Oc4cnc5[nH]ccc5c4)c(C(=O)NS(=O)(=O)c4ccc(NCC5(F)CCOCC5)c([N+](=O)[O-])c4)cc3F)CC2)C1` [compound 244, (R)-2-((1H-pyrrolo[2,3-b]pyrid-5-yl)oxy)-4-(2-(4-(4-((dimethylamino)methyl)benzyl)-2-(2-isopropylphenyl)piperazin-1-yl)-7-azaspiro[3.5]non-7-yl)-5-fluoro-N-((4-(((4-fluorotetrahydro-2H-pyran-4-yl)methyl)amino)-3-nitrophenyl)sulfonyl)benzamide], the IC50 at BCL2 (G101V) is under 10 nM; at BCL2 (D103Y), under 10 nM; in the assay on RS4; 11 cells, 0.5 to 1 nM; on BCL-XL, over 500 nM; on BCL2 it was under 10 nM.
In the case of `COc1cc(CN2CCN(C3CC4(CCN(c5cc(Oc6cnc7[nH]ccc7c6)c(C(=O)NS(=O)(=O)c6ccc(NCC7(F)CCOCC7)c([N+](=O)[O-])c6)cc5F)CC4)C3)[C@H](c3ccccc3C(C)C)C2)ccc1CN1CCCC1` [compound 248, (R)-2-((1H-pyrrolo[2,3-b]pyrid-5-yl)oxy)-5-fluoro-N-((4-(((4-fluorotetrahydro-2H-pyran-4-yl)methyl)amino)-3-nitrophenyl)sulfonyl)-4-(2-(2-(2-isopropylphenyl)-4-(3-methoxy-4-(pyrrolidin-1-ylmethyl)benzyl)piperazin-1-yl)-7-azaspiro[3.5]non-7-yl)benzamide], the IC50 is under 10 nM at BCL2 (G101V); under 10 nM on BCL2 (D103Y); 0.5 to 1 nM in the assay with RS4; 11 cells; over 500 nM at BCL-XL; under 10 nM on BCL2.
On to `COc1ccc(CN2CCN(C3CC4(CCN(c5cc(Oc6cnc7[nH]ccc7c6)c(C(=O)NS(=O)(=O)c6ccc(NC[C@H]7CC[C@](C)(O)CC7)c([N+](=O)[O-])c6)cc5F)CC4)C3)[C@H](c3ccccc3C(C)C)C2)cn1` [compound 236, 2-((1H-pyrrolo[2,3-b]pyrid-5-yl)oxy)-5-fluoro-N-((4-((((1r, 4r)-4-hydroxy-4-methylcyclohexyl)methyl)amino)-3-nitrophenyl)sulfonyl)-4-(2-((R)-2-(2-isopropylphenyl)-4-((6-methoxypyrid-3-yl)methyl)piperazin-1-yl)-7-azaspiro[3.5]non-7-yl)benzamide], for which the IC50 was under 10 nM on BCL2 (G101V); under 10 nM at BCL2 (D103Y); 0.5 to 1 nM with RS4; 11 cells; over 500 nM at BCL-XL; under 10 nM at BCL2.
Regarding `CC(C)c1ccccc1[C@@H]1CN(Cc2ccc(F)cc2)CCN1C1CC2(CCN(c3cc(Oc4cnc5[nH]ccc5c4)c(C(=O)NS(=O)(=O)c4ccc(NCC5(F)CCOCC5)c([N+](=O)[O-])c4)cc3F)CC2)C1` [compound 186, (R)-2-((1H-pyrrolo[2,3-b]pyrid-5-yl)oxy)-5-fluoro-4-(2-(4-(4-fluorobenzyl)-2-(2-isopropylphenyl)piperazin-1-yl)-7-azaspiro[3.5]non-7-yl)-N-((4-(((4-fluorotetrahydro-2H-pyran-4-yl)methyl)amino)-3-nitrophenyl)sulfonyl)benzamide], the IC50 at BCL2 (G101V) was under 10 nM; on BCL-XL, over 500 nM; at BCL2, under 10 nM.
As to `COc1cc(CN2CCN(C3CC4(CCN(c5cc(Oc6cnc7[nH]ccc7c6)c(C(=O)NS(=O)(=O)c6ccc(NCC7(F)CCOCC7)c([N+](=O)[O-])c6)cc5F)CC4)C3)[C@H](c3ccccc3C(C)C)C2)ccc1C1CC1` [compound 196, (R)-2-((1H-pyrrolo[2,3-b]pyrid-5-yl)oxy)-4-(2-(4-(4-cyclopropyl-3-methoxybenzyl)-2-(2-isopropylphenyl)piperazin-1-yl)-7-azaspiro[3.5]non-7-yl)-5-fluoro-N-((4-(((4-fluorotetrahydro-2H-pyran-4-yl)methyl)amino)-3-nitrophenyl)sulfonyl)benzamide], the IC50 at BCL2 (G101V) was under 10 nM; at BCL-XL it was over 500 nM; on BCL2 it was under 10 nM.
As for `CC(C)c1ccccc1[C@@H]1CN(Cc2ccc3c(c2)OCO3)CCN1C1CC2(CCN(c3cc(Oc4cnc5[nH]ccc5c4)c(C(=O)NS(=O)(=O)c4ccc(NCC5(F)CCOCC5)c([N+](=O)[O-])c4)cc3F)CC2)C1` [compound 203, (R)-2-((1H-pyrrolo[2,3-b]pyrid-5-yl)oxy)-4-(2-(4-(benzo[d][1,3]dioxocyclopent-5-ylmethyl)-2-(2-isopropylphenyl)piperazin-1-yl)-7-azaspiro[3.5]non-7-yl)-5-fluoro-N-((4-(((4-fluorotetrahydro-2H-pyran-4-yl)methyl)amino)-3-nitrophenyl)sulfonyl)benzamide], the IC50 on BCL2 (G101V) was under 10 nM; on BCL-XL, over 500 nM; at BCL2, under 10 nM.
`COc1ccc(CN2CCN(C3CC4(CCN(c5cc(Oc6cnc7[nH]cc(F)c7c6)c(C(=O)NS(=O)(=O)c6ccc(NC[C@H]7CC[C@](C)(O)CC7)c([N+](=O)[O-])c6)cc5F)CC4)C3)[C@H](c3ccccc3C(C)C)C2)cc1` [compound 235, 5-fluoro-2-((3-fluoro-1H-pyrrolo[2,3-b]pyrid-5-yl)oxy)-N-((4-((((1r, 4r)-4-hydroxy-4-methylcyclohexyl)methyl)amino)-3-nitrophenyl)sulfonyl)-4-(2-((R)-2-(2-isopropylphenyl)-4-(4-methoxybenzyl)piperazin-1-yl)-7-azaspiro[3.5]non-7-yl)benzamide]: the IC50 is under 10 nM at BCL2 (G101V), under 10 nM on BCL2 (D103Y), 0.5 to 1 nM with RS4; 11 cells and under 10 nM on BCL2.
